# Marks after values point to notes of the source that are not given here.
# Assays:
# [1] = system: Large White/Landrace parity 1 sows; test: Paylean (ractopamine) treatment during first lactation: maternal catabolism, post-weaning fertility, piglet growth, milk composition (Example 2); format: in vivo, pig; settings: for MMD loss in lactation (mm): maximum eye muscle depth; for Live weight loss in lactation (kg) Days 1-7 / Live weight loss in lactation (kg) Days 8-14 / Live weight loss in lactation (kg) Days 15-20: parity 1 sows, ractopamine 10 ppm days 1-13, 20 ppm from day 14 until mating; for 2nd litter size: Born alive / 2nd litter size: Total born: second litter; for Proportion sows exhibiting oestrus: within 10 days of weaning
# Method: This experiment was conducted at the University of Adelaide's Pig and Poultry Production Institute (PPPI) at Roseworthy, South Australia, with approval from the animal ethics committees of Primary Industries and Resources South Australia and The University of Adelaide. The experiment used sixty Large White/Landrace parity 1 sows, and was conducted in four replicates: replicates one and two were run in October and November 2006, respectively (spring); and replicates three and four were run in March and April 2007, respectively (autumn).
# At entry into the farrowing shed, Sixty Large White/Landrace first parity sows were weighed, and P2 backfat and maximum eye muscle depth (MMD) measured. Sows were then stratified according to both liveweight and body composition and allocated to one of two treatment groups (n=30 sows). One group (Control) received a standard lactation diet (0.71 g avail. lys/MJ DE) throughout lactation, whilst the other group (Ractopamine) received the same standard lactation diet but supplemented with ractopamine at 10 parts per million (ppm) from days 1-13 of lactation and 20 ppm from day 14 of lactation until mating. Dietary treatments commenced on day 1 of lactation (Day 0=first 24 hours after farrowing). During lactation, the amount of feed offered each day was stepped up gradually, reaching 6 kg/day by day 7 of lactation, and was fed over three meals per day, with daily feed disappearance recorded for each sow. Weaning took place 21 days after farrowing, and between weaning and first Al sows received 3 kg/day of their respective diets. Sows were weighed, and P2 backfat and MMD measured on days 1, 7, 14 and 20 of lactation. Gilts were weighed prior to being fed, and P2 backfat and MMD were measured over the last rib 65 mm down from the vertebrae by an experienced commercial operator using a 3.5 MHz linear probe (Ausonics Impact). Litter size was standardised to 9 piglets within 24 hours of farrowing, with piglets receiving only maternal milk as their feed source and weighed on days 1, 7, 13 and 20 of their mother's lactation. Maternal milk samples were collected on days 3, 13 and 20 of lactation and analysed for fat and protein content.
# After weaning, sows were housed in groups of three or four. Boar exposure commenced on the fourth day after weaning, consisted of 15 minutes of full, physical boar contact and was conducted in a detection mating area (DMA). At their first oestrus after weaning, sows two artificial inseminations (AIs), 24 hours apart.
# All Als took place in the DMA, with fence-line contact with a boar during the procedure. Inseminations were performed as per standard industry practice using disposable spirette catheters, with each insemination consisting of an 80 ml dose of fresh, extended semen (3×10^9 spermatozoa per inseminate; <4 days old). Semen used for this experiment was purchased from a commercial artificial insemination collection centre (SABOR Pty. Ltd, Clare, South Australia). Sows not detected in oestrus by 10 days after weaning were described as anoestrous.
# [2] = system: large white first parity sows; test: Supplementary ractopamine in the lactation diet: sow weight loss and subsequent reproductive performance (Example 1); format: in vivo, pig
# Text: Sixty large white first parity sows were allocated to one of two treatment groups (n=30 sows/treatment). One group (CONT) received a standard lactation diet (0.71 g available lysine/MJ digestible energy (DE)) throughout lactation, whilst the other group (RAC) received the standard lactation diet supplemented with ractopamine at 10 ppm from d 1-13 of lactation and 20 ppm from d 14 of lactation until mating. The amount of feed offered each day was stepped up gradually, reaching 5 kg/day by d 4 of lactation, and maintained at this level for the rest of lactation. Sows were weighed and P2 backfat measured on d 1, 14 and 20 of lactation, the litter size standardised to 9 piglets within 24 hours of lactation. Sows were weaned on d 21 of lactation, with boar exposure commencing 4 d after weaning and sows artificially inseminated twice at their first oestrus post-weaning. Subsequent reproductive performance of all sows was recorded: weaning-to-oestrus interval (WOI) and second litter size. Sows failing to epress eostrus within 10 d of weaning were deemed to be anoestrus and allocated a nominal weaning-to-oestrus interval of 15 d. A general analysis of variance model was used to study the effects of RAC supplementation on sow weight loss during lactation and subsequent reproductive performance.
compound,measurement,setting,value
"CC(CCc1ccc(O)cc1)NCC(O)c1ccc(O)cc1 (racemic) [Ractopamine, ractopamine]",Proportion mated sows pregnant,[1]; after two AIs at first oestrus post-weaning,0.91
same,P2 backfat loss in lactation (mm),[1],lost significantly less
same,P2 backfat loss in lactation (mm),[1]; listed as Ractoparnine,2.44^b mm
same,MMD loss in lactation (mm),[1],similar
same,MMD loss in lactation (mm),[1]; listed as Ractoparnine,2.1 mm
same,Live weight loss in lactation (kg) Days 1-7,[1],similar
same,Live weight loss in lactation (kg) Days 8-14,[1],similar
same,Live weight loss in lactation (kg) Days 15-20,[1],lost significantly less
same,Live weight loss in lactation (kg) Days 1-7,[1]; listed as Ractoparnine,2.43 kg
same,Live weight loss in lactation (kg) Days 8-14,[1]; listed as Ractoparnine,2.98 kg
same,Live weight loss in lactation (kg) Days 15-20,[1]; listed as Ractoparnine,0.66^b kg
same,2nd litter size: Born alive,[1],tendency (P=0.064) for the number of piglets born alive-at the second litter to be higher
same,2nd litter size: Total born,[1],"numerical, but not significant, increase"
same,2nd litter size: Born alive,[1]; listed as Ractoparnine,9.48**
same,2nd litter size: Total born,[1]; listed as Ractoparnine,9.66
same,Weaning-to-oestrus (d),[1]; sows not in oestrus within 10 days assigned nominal 15 days,similar
same,Weaning-to-oestrus,"[1]; sows not in oestrus within 10 days assigned nominal 15 days, listed as Ractoparnine",6.39 days
same,Proportion sows exhibiting oestrus,[1],"numerical, but not significant, reduction in the proportion of Control compared to Ractopamine sows"
same,Proportion sows exhibiting oestrus,[1]; listed as Ractoparnine,0.95
same,weaning-to-oestrus interval (WOI),[2]; anoestrus sows allocated nominal 15 d,6.4 ± 0.63 days
same,Lactation weight loss (kg) Days 1-14,"[2]; first parity sows, ractopamine 10 ppm d 1-13, 20 ppm from d 14",4.6 ± 1.41 kg
same,"Piglets born at second litter, Total born",[2]; subsequent (second) litter,9.7 ± 0.54
same,proportion of sows exhibiting oestrus within 10 d of weaning,[2]; within 10 d of weaning,0.95±0.08

# Source: US8993635B2, “Method of increasing or maintaining the reproductive performance of sows” (Pork CRC Ltd, priority 2010, dated 2015)
